One data set has as its system HIV-1 NL4-3. The experiment in a line: HIV-1 infectivity assay. Conditions: for anti-HIV activity: TZM-bl cells, statement in words. Type of data set: cell-based.
A short description of data set [1]: Cytotoxicity: growth inhibition of uninfected TZM-bl cells. The format is cell-based. Conditions: human.

Each structure is given as a SMILES string. Some results are limits rather than exact numbers.

Turning to `CCc1cc(=O)c2ccc3c(c2o1)[C@H](OC(=O)C12CCC(C)(C(=O)O1)C2(C)C)[C@H](OC(=O)C12CCC(C)(C(=O)O1)C2(C)C)[C@@H](C)S3` (some centres unmarked) [Compound 6b], in the data set on HIV-1 NL4-3, the anti-HIV activity result is “remarkably reduced or even completely abolished”. Take `Cc1cc(=O)oc2c3c(ccc12)SC(C)(C)[C@H](OC(=O)[C@@]12CC[C@@](C)(C(=O)O1)C2(C)C)[C@@H]3OC(=O)[C@@]12CC[C@@](C)(C(=O)O1)C2(C)C` [Compound 8a, 4-Methyl-1′-thia-DCK]: the CC50 in data set [1] is above 30.6 µM.

In the data set on HIV-1 NL4-3 (Human immunodeficiency virus 1, NL43, TZM-bl), `CCc1cc(=O)c2ccc3c(c2o1)[C@@H](OC(=O)C12CCC(C)(C(=O)O1)C2(C)C)[C@@H](OC(=O)C12CCC(C)(C(=O)O1)C2(C)C)C(C)(C)O3` (some centres unmarked) [Compound 2-Ethyl-DCP, 2-ethyl-DCP, reference compound] came in with an EC50 of 0.12 µM. In data set [1], it took 14.3 µM to reach half-maximal cytotoxicity (CC50). As to `Cc1cc(=O)oc2c3c(ccc12)SC(C)(C)[C@@H](OC(=O)[C@@]12CC[C@@](C)(C(=O)O1)C2(C)C)[C@H]3OC(=O)[C@@]12CC[C@@](C)(C(=O)O1)C2(C)C` [Compound 8b], in the data set with HIV-1 NL4-3, the anti-HIV activity result is listed as “remarkably reduced or even completely abolished”.

A word on the CC50: it is the concentration that lowers cell viability or growth by half. Read a high CC50 as better tolerance by the cells. By EC50 is commonly meant the midpoint of the concentration-response curve. Higher therefore signals lower potency in that assay.

For the origin of these results see PMC3171603 (Bioorganic & medicinal chemistry letters, 2011).
